Measured values published in paper PMC7385131, “Mechanisms of activation and desensitization of full-length glycine receptor in lipid nanodiscs” (Nature Communications, 2020).

Key:
[1] = target: T1, zebrafish GlyRα1 (full-length glycine receptor α1) (Danio rerio, UniProt O93430); assay: cryo-EM structure in lipid nanodiscs ([…] Å) with glycine; TEVC block in oocytes; type: binding
T1 construct: gene glra1; homopentamer in asolectin/MSP1E3D1 nanodiscs
T1 sequence (O93430 1-444): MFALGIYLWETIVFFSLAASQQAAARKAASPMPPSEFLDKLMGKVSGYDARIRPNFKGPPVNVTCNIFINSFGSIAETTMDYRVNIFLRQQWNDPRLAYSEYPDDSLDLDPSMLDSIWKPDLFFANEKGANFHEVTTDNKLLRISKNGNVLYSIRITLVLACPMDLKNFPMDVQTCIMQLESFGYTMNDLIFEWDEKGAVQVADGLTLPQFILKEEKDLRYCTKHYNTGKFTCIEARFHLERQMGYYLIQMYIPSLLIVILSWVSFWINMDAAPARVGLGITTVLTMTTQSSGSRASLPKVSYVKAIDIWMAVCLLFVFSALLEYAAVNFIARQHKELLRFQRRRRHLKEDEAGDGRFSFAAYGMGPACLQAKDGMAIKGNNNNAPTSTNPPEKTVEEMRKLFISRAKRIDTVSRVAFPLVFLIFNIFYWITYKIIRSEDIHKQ

[2] = target: T1, zebrafish GlyRα1 (full-length glycine receptor α1); assay: cryo-EM structure in lipid nanodiscs ([…] Å); TEVC in oocytes; type: binding
[3] = target: the molecule itself; assay: cryo-EM structure; GlyR in asolectin nanodiscs (MSP1E3D1), ~0.1 mg/ml, buffer A (200 mM NaCl, 20 mM HEPES pH 8.0); no ligand, 5 mM glycine, 5 mM glycine + 3 mM picrotoxin, 1 mM glycine + 0.5 uM ivermectin, or 0.1 mM glycine + 30 uM ivermectin; C5 symmetry imposed

Molecule: C=C(C)[C@@H]1[C@H]2OC(=O)[C@@H]1[C@]1(O)C[C@H]3OC34C(=O)O[C@H]2[C@@]41C.CC(C)(O)[C@@H]1[C@H]2OC(=O)[C@@H]1[C@]1(O)C[C@H]3OC34C(=O)O[C@H]2[C@@]41C (stereo partly drawn) [PTX, picrotoxin]
- cryo-EM structure in lipid nanodiscs (3.51 Å) with glycine; TEVC block in oocyte [1]: an additional density was seen in the pore at the mid-level of M2 nestled between Gly2′ and Leu9′

Molecule: NCC(=O)O [Gly, glycine]
- cryo-EM structure in lipid nanodiscs (3.47 Å); TEVC in oocytes [2]: 3D reconstructions reveal an additional small density in the canonical neurotransmitter-binding pocket wedged at the subunit interface in the ECD

B1: full-length zebrafish glycine receptor α1 (GlyRα1) (receptor, UniProt O93430 25-444, looked up)
chain: ARKAASPMPPSEFLDKLMGKVSGYDARIRPNFKGPPVNVTCNIFINSFGSIAETTMDYRVNIFLRQQWNDPRLAYSEYPDDSLDLDPSMLDSIWKPDLFFANEKGANFHEVTTDNKLLRISKNGNVLYSIRITLVLACPMDLKNFPMDVQTCIMQLESFGYTMNDLIFEWDEKGAVQVADGLTLPQFILKEEKDLRYCTKHYNTGKFTCIEARFHLERQMGYYLIQMYIPSLLIVILSWVSFWINMDAAPARVGLGITTVLTMTTQSSGSRASLPKVSYVKAIDIWMAVCLLFVFSALLEYAAVNFIARQHKELLRFQRRRRHLKEDEAGDGRFSFAAYGMGPACLQAKDGMAIKGNNNNAPTSTNPPEKTVEEMRKLFISRAKRIDTVSRVAFPLVFLIFNIFYWITYKIIRSEDIHKQ
modifications: N-glycan at Asn62
notes: Glycine receptor subunit alpha-1, zebrafish, full-length gene, codon-optimized; residues numbered as in UniProt O93430; Homopentamer; the model begins at Pro31; No thrombin cleavage is told; also called full-length glycine α1 receptor; GlyR–Apo; source: Sf9 cells (baculovirus, pFastBac1), purified (TALON, Superose 6), reconstituted into asolectin nanodiscs with MSP1E3D1
- stoichiometry N [3]: 5
